From patent US7041787B2, “Design and use of advanced zinc chelating peptides to regulate matrix metalloproteinases” (Kimberly-Clark Worldwide, Inc., priority 2000, dated 2006)
*1 amine or outer side, *2 acyl side, *3 side chain or, on linkers, in order; H or OH if unused. Where a SMILES comes first, the peptide text is derived from it. [ ]: non-standard residue; d: D form. The star is where a group is joined. X2 = O=C(O)CN(CC(=O)O)CC(=O)NC(=O)C[C@H](N[*:1])C(=O)[*:2]; X3 = O=C(O)CN(CC(=O)O)CC(C(=O)NCCS*)N(CC(=O)O)CC(=O)O; X1 = O=C(O)CN(CC(=O)O)c1cc(F)ccc1OCC(=O)*

Key:
Epiderm skin model = experiment: Epiderm skin equivalent viability (MTT) assay; format: cell-based; conditions: 10 mM peptide in PBS, 12 hours; differences not significant
Method: The relative toxicity of the chelating and substrate peptides was assayed using the skin model Epiderm that is commercially available from MatTek Corp. The individual skin sample containers were preincubated in culture medium at 37° C. under 5% CO2 for two hours prior to the addition of the peptide constructs. The sample containers were transferred to 6 well plates that contained fresh media. All peptides were dissolved in PBS at a final concentration of 10 mM, and 100 μL of each peptide solution was pipetted onto the surface of the Epiderm sample container. Incubation was continued for 12 hours at 37° C. under 5% CO2. After the incubation period, the sample containers were washed three times with PBS and the sample containers were transferred to a 24 well plate that contained 300 μL of MTT assay media per well (MTT concentration was 1 mg/mL). The colorimetric assay was allowed to develop for three hours (incubation at 37° C. under 5% CO2). Sample containers were then transferred to a 24 well culture plate that contained 2 mL of isopropanol per well. […] Absorbance readings were taken at 570 nm and 650 nm for each sample. The percent viability of each sample relative to a PBS control was calculated as: 100×(OD570^sam−OD650^sam)/(OD570^con−OD650^con) (5) Routinely, each peptide sample was assayed in duplicate or triplicate. […]

MMP-9 [1] = biological target: T1, MMP-9 (Homo sapiens, UniProt P14780); experiment: Enzymatic hydrolysis of fluoresceinated collagen by MMP-9 (fluorescein release assay); format: biochemical; conditions: MMP-9:ChePep-1 molar stoichiometries 1:0 to 1:1, FIG. 1
T1 construct: Active MMP-9 enzyme was purchased from Calbiochem; purchased Calbiochem
Method: Two enzymatic assays were performed. The first assay measured the enzymatic hydrolysis of fluoresceinated collagen by MMP-9 as a function of time. Fluoresceinated collagen (Molecular Probes, Inc.), at a concentration of 5 μM was added to reaction buffer (50 mM Tris-HCl (pH 7.6), 150 mM NaCl, 5 mM CaCl2, 0.1 mM NaN3) and was placed into a Spectrosil quartz fluorometer cuvette. MMP at a concentration of 0.1 μM was mixed with varying amounts of chelating peptide having SEQ ID No. 4 or 6 and incubated at 25° C. for 10 minutes to effect binding. The protein mixture was added to the collagen substrate and mixed quickly. Fluorescence emission intensity at 520 nm was measured as a function of time (excitation wavelength 495 nm) in a Shimadzu RF5301 fluorometer. The fluorescein release assay was used to determine the inhibitory constant (Ki) of the chelating peptide inhibitor ([I]) according to Segel (1993) via the use of Dixon plots (1/v vs. [I]), such that: slope=Km/(VmaxKi[S]) (1) where Km is the Michaelis constant, Vmax is the reaction maximum velocity, and [S] is the substrate concentration.

MMP-9 [2] = biological target: T1, MMP-9; experiment: FRET substrate peptide cleavage assay with MMP-9; format: biochemical; conditions: for Regulation of MMP-9 in FRET assay (in words): ChePep:MMP-9 molar stoichiometries 0.1:1 to 0.3:1, FIGS. 2-5; for Regulation of MMP-9 compared with other ChePeps (in words): FRET assay, comparison of molar stoichiometries
Method: The second assay utilized the technique of fluorescence resonance energy transfer (FRET). The substrate peptide (Calbiochem #444221) comprised seven amino acids, coupled to a carboxyl terminal dinitrophenyl acceptor, and an amino terminal 2-aminobenzo-anthraniloyl (Abz) moiety donor. Cleavage of this substrate by MMP-9 results in the liberation of a fluorescent product (365 nm excitation, 450 nm emission). […] MMP at a concentration of 0.1 μM was mixed with varying amounts of chelating peptide (0, 0.01, 0.02, 0.04, and 0.1 μM) and incubated at 25° C. for 10 minutes to effect binding. The protein mixture was added to the peptide substrate and mixed quickly. Fluorescence intensity as a function of time was measured with a Dynex MFX fluorescence microtiter plate reader. Fluorescence intensity was related back to moles of peptide cleaved by producing a standard curve with an Abz containing non-FRET peptide. Inhibitory constants were derived from the curves and are listed below in Table 2.

MMP-9 [3] = biological target: T1, MMP-9; experiment: Surface plasmon resonance (BiaCore) binding of chelating peptide to immobilized MMP-9; conditions: FIG. 6
Method: The BiaCore-X surface plasmon resonance (SPR) device was utilized to measure the interaction between the chelating peptide (CP) and MMP-9. For these experiments a carboxymethyl dextran sensor chip (BiaCore, AB; CM-5, Lofas et al., 1993) was activated with 50 mM N-hydroxysuccinimide, 0.2 M N-ethyl-N′-(dimethylaminopropyl)-carbodiimide at a flow rate of 10 μL per minute for ten minutes. MMP-9 at a concentration of 75 ng/μL was coupled to the activated surface at a flow rate of 10 μL per minute for ten minutes. The final surface was inactivated by flowing 1 M ethanolamine HCl at a rate of 10 μL per minute for five minutes over the sensor surface. CP was flowed over the sensor surface at a rate of 20 μL per minute, and at concentrations of 10, 25, and 50 nM. Binding isotherms were evaluated by simultaneously fitting the forward (ka) and reverse (kd) rate constants to the following formula: d[CP˜MMP-9]/dt=(ka[CP][MMP-9])−(kd[CP˜MMP-9]) (2) (Karlsson and Falt, 1997) where [CP], [MMP-9], and [CP˜MMP-9] are the concentrations of free chelating peptide, free MMP-9, and the complex respectively. […]

T1 sequence (P14780 107-707 limits assumed): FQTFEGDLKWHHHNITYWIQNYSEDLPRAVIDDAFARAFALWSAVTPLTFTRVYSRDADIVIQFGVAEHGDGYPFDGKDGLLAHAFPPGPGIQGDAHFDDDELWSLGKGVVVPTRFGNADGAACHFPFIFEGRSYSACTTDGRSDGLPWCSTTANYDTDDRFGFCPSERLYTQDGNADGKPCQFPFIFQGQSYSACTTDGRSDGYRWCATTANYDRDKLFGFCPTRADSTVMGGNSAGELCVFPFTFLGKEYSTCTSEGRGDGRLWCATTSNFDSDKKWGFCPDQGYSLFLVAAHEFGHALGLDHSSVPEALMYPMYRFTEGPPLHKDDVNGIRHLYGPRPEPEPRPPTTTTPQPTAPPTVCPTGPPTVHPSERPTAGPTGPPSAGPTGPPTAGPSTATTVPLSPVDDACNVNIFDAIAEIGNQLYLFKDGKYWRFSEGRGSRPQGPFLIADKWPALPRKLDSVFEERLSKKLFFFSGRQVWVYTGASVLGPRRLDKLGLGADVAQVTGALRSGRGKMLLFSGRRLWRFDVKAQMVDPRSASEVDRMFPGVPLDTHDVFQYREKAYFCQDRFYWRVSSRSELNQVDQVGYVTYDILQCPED

2-amino-4-fluorophenol N,N,O triacetic acid [AFTA]
Percent viability relative to PBS control, by zinc chelator of the construct (Epiderm skin model): 90.5%

CC(C)[C@H](NC(=O)[C@@H]1CCCN1C(=O)[C@@H](NC(=O)[C@H](C)NC(=O)[C@H](CO)NC(=O)[C@@H](N)CSSCCNC(=O)C(CN(CC(=O)O)CC(=O)O)N(CC(=O)O)CC(=O)O)C(C)C)C(=O)N[C@@H](Cc1c[nH]cn1)C(=O)O (some centres unmarked) [ChePep-1] (H-C(X3)SAVPVH-OH)
Regulation of MMP-9 hydrolysis of fluoresceinated collagen (in words) (MMP-9 [1]): prevents the enzyme from degrading fluoresceinated collagen in a dose dependent manner

CC(C)[C@H](NC(=O)[C@@H]1CCCN1C(=O)[C@@H](NC(=O)[C@H](C)NC(=O)[C@H](CO)NC(=O)[C@@H](N)CC(=O)NC(=O)CN(CC(=O)O)CC(=O)O)C(C)C)C(=O)N[C@@H](Cc1c[nH]cn1)C(N)=O [ChePep-2] (H-[X2]SAVPVH-NH2)
Regulation of MMP-9 in FRET assay (in words) (MMP-9 [2]): dose dependent manner | Regulation of MMP-9 compared with other ChePeps (in words) (MMP-9 [2]): significantly more effective in regulating MMP-9 than was ChepPep-1

CC[C@H](C)[C@H](N)C(=O)N[C@@H](Cc1ccc(O)cc1)C(=O)N[C@H](C(=O)N[C@@H](C)C(=O)N[C@@H](CSSCCNC(=O)C(CN(CC(=O)O)CC(=O)O)N(CC(=O)O)CC(=O)O)C(=O)N[C@@H](CCSC)C(=O)N[C@@H](CO)C(=O)N[C@@H](C)C(=O)N[C@H](C(N)=O)C(C)C)[C@@H](C)O (some centres unmarked) [ChePep-3] (H-IYTAC(X3)MSAV-NH2; N-terminus assumed)
Regulation of MMP-9 compared with other ChePeps (in words) (MMP-9 [2]): nearly identical ability to regulate MMP-9

CC[C@H](C)[C@H](N)C(=O)N[C@@H](Cc1ccc(O)cc1)C(=O)N[C@H](C(=O)N[C@@H](C)C(=O)N[C@@H](CC(=O)NC(=O)CN(CC(=O)O)CC(=O)O)C(=O)N[C@@H](CCSC)C(=O)N[C@@H](CO)C(=O)N[C@@H](C)C(=O)N[C@H](C(N)=O)C(C)C)[C@@H](C)O [ChePep-4] (H-IYTA[X2]MSAV-NH2; N-terminus and C-terminus assumed)
Regulation of MMP-9 compared with other ChePeps (in words) (MMP-9 [2]): nearly identical ability to regulate MMP-9

CC(C)C(NC(=O)C(CS)NC(=O)C(NC(=O)C(CS)NC(=O)COc1ccc(F)cc1N(CC(=O)O)CC(=O)O)C(C)O)C(=O)N1CCCC1C(=O)O (centres unmarked) [ChePep-6] (X1-CTCVP-OH; configuration not given here)
Regulation of MMP-9 in FRET assay (in words) (MMP-9 [2]): effective MMP-9 regulator at low molar stoichiometries | Regulation of MMP-9 compared with other ChePeps (in words) (MMP-9 [2]): most potent regulator of all the ChePeps | SPR association / affinity for immobilized MMP-9 (in words) (MMP-9 [3]; 400 second association phase, 20 μL per minute): binds quickly and with high affinity | SPR dissociation from immobilized MMP-9 (in words) (MMP-9 [3]; 800 second dissociation phase): does not dissociate

pyridine disulfide ethylenediaminetetraacetic acid [PSDE]
Percent viability relative to PBS control, by zinc chelator of the construct (Epiderm skin model): 96.5%
